Entries after “also recorded” stand apart in the source; their conditions may differ.
What was measured:
[1] = Particle size characterization of treprostinil compositions (QELS); format: physicochemical; conditions: particles of compositions comprising the alkyl ester (FIG. 2)
Description: All particle size measurements were performed using a Wyatt Technology Mobius™ Zeta Potential/ Particle Sizing Instrument in Quasi-elastic light scattering (QELS) mode. Composition aiiquots were diluted 10-fold in pre-filtered (0.02 μm pore filter) ultrapure of deionized H2O. Light scattering data was collected and converted into particle size and size distribution using Dynamics® v. […] Reported average particle size diameter is based on the cumulants model, which mathematically fits particle diffusion constants (determined by the raw scattering intensities of particles in a suspension) to obtain the particle size mean and a distribution of particle sizes around the mean diameter.
Particle uniformity was determined using the software-calculated polydispersity (% PD). Polydispersity is defined as the standard deviation of the particle size distribution from the mean particle size value. % PD normalizes the polydispersity to the mean diameter by dividing by the mean size and multiplylng by 100. These parameters indicate whether a particle suspension has one or more size populations of particles (monomodal versus multimodal). […]
Dynamics® polydispersity parameter represents a monodisperse population of particles if % PD≦15. A calculated % PD≧57% represents a polydisperse population of particles.

[2] = Treprostinil alkyl ester conversion to treprostinil in rat lung tissue homogenate; format: in vitro ADME; conditions: 37° C., 200 nM, 10 mg/mL of protein, 4 hours
Description: Treprostinil alkyl ester conversion to treprostinil was also measured in the presence of rat, dog and monkey lung tissue homogenate at 37° C. Mere, data were calculated based on fit of exponential increase to the maximum (experiments performed in duplicate). The results of this study are provided below in Table 2A and FIG. 37. […] Both FIG. 37 experiments (left and right graphs) were performed in duplicate and the lines represent nonlinear exponential regression assuming 1 phase decay.

[3] = physchem; conditions: organic solvent or mixture, thermodynamic from solid
Description: Selected treprostinil derivatives were evaluated for the use in a metered dose inhaler (MDI).
5 mg of each treprostinil compound was added in a glass bottle. Specific amount of ethanol was added by weight. An MDI valve was crimped to each bottle, and HFA propellant added through the valve to the total volume of 5 mL. Compounds were allowed to dissolve for 24 hours at room temperature. The formulations were assessed visually for solubility. The goal was to estimate the minimum ethanol concentration required to solubilize each compound in propellant.
Soluble samples presented as clear and colorless solutions. […] Non-soluble samples had white precipitate or crystals formed. Ethanol was added as a solubility aid.

[4] = target: T1, EP2 prostanoid receptor (Homo sapiens, UniProt P43116); assay: GloSensor cAMP assay in CHO-K1 cells co-transfected with the EP2 receptor; format: cell-based; conditions: for change of potency with incubation time / release profile: dose response curves at 0.5 to 8 hr incubation
T1 construct: host or cells: CHO-K1 cells, transiently co-transfected with pGloSensor-22F cAMP plasmid and pGEM-3Zf(+)
T1 sequence (P43116 whole entry): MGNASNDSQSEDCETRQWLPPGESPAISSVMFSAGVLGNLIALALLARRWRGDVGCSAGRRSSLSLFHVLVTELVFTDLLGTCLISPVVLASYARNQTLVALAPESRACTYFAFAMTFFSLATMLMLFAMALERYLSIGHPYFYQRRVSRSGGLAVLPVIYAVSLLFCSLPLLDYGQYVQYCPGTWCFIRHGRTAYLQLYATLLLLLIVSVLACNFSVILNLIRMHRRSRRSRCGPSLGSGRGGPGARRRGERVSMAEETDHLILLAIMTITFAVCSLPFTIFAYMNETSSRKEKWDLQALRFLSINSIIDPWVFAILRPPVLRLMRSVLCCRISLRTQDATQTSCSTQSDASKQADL
Text: cAMP is a second messenger involved in signal transduction of G-protein coupled receptors (GPCRs) acting through Ga-s and Ga-i proteins. Because the treprostinil receptor is a GPCR, the assay provides an indication of whether the respective prostacyclin compound (or metabolite thereof) binds its receptor and activates the GPCR cell signaling cascade. The GloSensorTM assay harnesses a genetically modified form of firefly luciferase into which a cAMP-binding protein moiety has been inserted. Upon binding of cAMP, a conformational change is induced leading to increased light output. The EP2 prostanoid receptor was co-transfected with the GloSensorTM plasmid (Promega) into CHG-K1 cells as follows. CHO-K1 cells were harvested when the monoloayer was at 50-90% confluence. First, cells were washed with 5 mL PBS. […] The media was aspirated, and the cell pellet was resuspended in 10 mL of growth media. Cell number was determined using a hemacytometer. Each well of a culture treated 96 […] bottom plate (Costar, Cat #: 3917) was seeded with 1×10^4 cells per 100 μL antibiotic-free growth media. […] For small scale transfections of up to 20 wells, the pGLoSensor-22F cAMP plasmid (Promega, Cat #: E2301) (2 μg): (EP2) (10 ng) (Origene, Cat #: SC126558) : pGEM-3Zf(+) (10 ng) (Promega, Cat #: P2271) ratio was diluted to a final concentration of 12.6 ng/μL (total plasmid) in Opti-MEM I reduced-serum medium (Life Technologies, Cat #: 1985062). Next, 6 μL of FuGENE HD transfection reagent (Promega, Cat #: E2311) was added to 160 μL of diluted plasmid and mixed carefully by gentle pipetting. The complex was incubated at room temperature for 0 to 10 minutes, and then 8 μL of the complex was added per well of a 96 well white assay plate (Costar, Cat #: 3917) and gently mixed without disturbing the cell monolayer. […] Following incubation, cells were treated and analyzed. For larger scale transfections, the aforementioned steps were scaled up accordingly, and cells were frozen following the last incubation. In order to prepare frozen transfected CHO-K1 cells, the media was aspirated from culture flasks and cells were rinsed with 5 mL PBS. […] Cell number was determined using a hemacytometer. The media was aspirated, and the cell pellet was resuspended in freezing media (Millipore, cat #: S-002-5F) at 2.5×10^6 cells/vial. Transfected cells were incubated overnight at -80° C. before transfer to liquid nitrogen for long term storage. […] In preparation for cAMP measurement, the cells were equilibrated with the GloSensor cAMP reagent prior to treatment. For equilibration, the medium was carefully removed from the individual well. Next, 100 μL of equilibration medium (6% v/v of Glosensor Reagent stock solution (Promega, Cat #: E291), 10% FBS (Hyclone, Cat #: SH30071.03) and 88% CO2 independent medium (Life Technologies, Cat #: 18045088)) was added per well of the 96-well plate, and added to the side of each well. The plate was then incubated for 2 hours at room temperature. A first pre-read measurement was taken using a microplate reader (MicroLumat Plus). Plates were incubated for an additional 10 minutes at room temperature, followed by a second pre-read measurement. […] Following treatment, each plate was read every 5 minutes for the duration of the assay using a microplate reader (MicroLumat Plus). In order to determine the fold change in cAMP relative to the control, the transfection efficiency was first determined by dividing the second pre-read measurement by the average of the corresponding pre-read measurements. Next, the normalized relative light units (RLUs) of the samples were determined by dividing the plate read measurement by the transfection efficiency. The fold change in cAMP relative to the control was then determined by dividing the normalized RLU of the samples by the normalized RLU of the control. […] Results from the three highest concentrations are provided at FIG. 3A (10 μM), FIG. 3B (1 μM) and FIG. 3C (0.1 μM). […]

[5] = dog, in vivo
Description: Twelve beagle dogs of either sex were randomly assigned to different inhaled doses of treprostinil in PBS or the compound of Formula (A) wherein R2=
Formulations were nebulized with an Aeroneb nebulizer (MMAD: 2.5-4 μm) delivered into a 500 ml expansion chamber. Formulations were nebulized for 2 min at ventilator settings of 90 ml/breath, 15 breaths/min (delivered volume=2.7 L) and collected on a filter. Drug amount (μg) on the filter was measured by HPLC to calculate the concentration of drug delivered through the ventilator circuit (μg/L).
Dosimetry was performed in propofol-anesthetized dogs in which nebulized drugs were introduced into a mixing chamber interposed on the inspiratory limb of a canine respirator. Technical trials were performed before each experiment to measure the concentration of drug (μg/L) delivered for each breath. The inhaled drug dose (μg/kg) was calculated using the formula: Inhaled Drug Dose (μg/kg)=Drug Cone. (μg/L)×Minute Ventilation (L/min.)×Time (min.)/Body Weight (kg).
Dosimetry was performed in propofol-anesthetized, artificially ventilated dogs in which nebulized drugs were introduced into a mixing chamber interposed on the inspiratory limb of the respirator. Technical trials were performed before each experiment measuring the concentration of drug (μg/L) per breath, minute ventilation and time required to achieve a targeted pulmonary dose. […] Clinical signs (cough, rapid shallow breathing, emesis and pale gums) were also monitored.

[6] = rat, in vivo
Description: Nebulized treprostinil (TRE) solution and treprostinil alkyl ester formulations were administered (at 15 nmol/kg, or […] TRE equivalent) to anaesthetised-ventilated rats (6-hour studies) or to conscious rats by nose-only inhalation (24-hour studies). Blood and lung samples were collected at specified time points. TRE and treprostinil alkyl ester concentrations in blood plasma and lung tissue were measured by HPLC/MS/MS analysis.
Male Sprague Dawley rats were placed in restraining tubes and exposed to nebulised drugs via the Jaeger-NYU Nose-Only Directed-Flow Inhalation Exposure System (CH Technologies, Westwood, N.J.) (FIG. 31), Test articles (6 mL at specific concentration) were nebulised using the Aeroneb nebuliser to deliver a predetermined estimated pulmonary dose. Blood and lung tissue samples were taken at selected times after nebulization of the drags over a 24-hour period.

[7] = Tolerability and pharmacokinetics in rats after 14 consecutive days of inhaled C16-TR (T748); format: in vivo, rat; conditions: T748, 0.6-18 μg/kg inhaled
Description: Body weights were recorded daily and organ weights (lungs, heart, liver) were measured 24 hr, after the last drug dose.

[8] = Treprostinil pharmacokinetics in anaesthetised, ventilated rats after nebulized dosing; format: in vivo, rat; conditions: nebulized solution
Description: Male Sprague Dawley rats wrere anaesthetised and prepared with endotracheal tube for ventilation. The right femoral vein was cannulated to facilitate blood collections. Terminal lung samples were taken for analysis only 6 hours after dosing. […] Systemic blood pressure (mSAP), heart rate (HR), and arterial oxygen saturation (SaO2). Physiologic parameters were measured during normoxia (fraction of inspired oxygen [FrO2]=0.21, SaO2 ≈90%) and for 2 to 3 hours during hypoxia (FrO2=0.10, SaO2≈50%).

[9] = test system: cough reflex; assay: Cough reflex in guinea pigs exposed to aerosols; format: in vivo, guinea pig
Description: has the following components: Aerosols were generated with an Ultra-Neb Pro nebulizer (nebulizer output 0.36 mL/min.) that was mixed with inspired air delivered at a rate of 2 L/min. […] Coughs were detected by visual observations, plethysmograph recordings and cough sounds.

[10] = nebulized concentration of 30 μg/mL

## CCCCCCCCCCCCCCOC(=O)COc1cccc2c1C[C@H]1C[C@@H](O)[C@H](CC[C@@H](O)CCCCC)[C@H]1C2 [C14-TR, tetradecyl-treprostinil]
[1]
  polydispersity (% PD): around 15 % PD
[2]
  Rate of treprostinil alkyl ester conversion: 0.4 nmOL/h * g of protein
[3]
  solubility at 24 h: < 1000 µg/mL
[3]; Solubility in HFA-134a with added ethanol
  solubility at 24 h: < 1000 µg/mL
[4]
  change of potency with incubation time / release profile: increases with incubation time

## hexadecyl-treprostinil [C16-TR]
[5]
  adverse clinical signs in the dose-response study: adverse clinical signs were seen in only 1 dog
[6]
  release kinetics of treprostinil over 24 hours: independent of dose
[7]
  tolerability, body weights and organ weights: no tolerability issues or significant changes (relative to PBS) in body weights and organ weights; also recorded: well tolerated
[4]
  change of potency with incubation time / release profile: increases with incubation time
[4]; unformulated compounds, 10 μM and 5 μM, FIG. 21
  ranking of activity of the treprostinil compounds: C12-TR>C14-TR>5-nonanyl-TR>C16-TR

## CCCCC[C@H](O)CC[C@@H]1[C@H]2Cc3cccc(OCC(=O)O)c3C[C@H]2C[C@H]1O [Treprostinil, (1R,2R,3aS,9aS)-[[2,3,3a,4,9,9a-hexahydro-2-hydroxy-1-[(3S)-3-hydroxyoctyl]-1H-benz[f]inden-5-yl]oxy]acetic acid]
[8]
  time by which measurable levels of TRE were not seen in the lungs: < 6 h
  time to which measurable levels of TRE were seen in the blood plasma: ≤ 4 h
[5]; both, beagle
  time by which plasma treprostinil was below the level of quantification: ≤ 4 h
  treprostinil plasma Cmax relative to similar inhaled doses of T623: 15-20 fold
[5]
  period over which plasma levels of treprostinil were sustained: disappeared within a few hours
[9]; guinea pigs, aerosol 10 min.
  exposure concentration consistently evoking cough: ≥ 30 µg/mL
[9]; [10]
  cough bouts: 1-4
  guinea pigs with cough: 7 of 7
  total number of coughs: 36+9 coughs
[4]; 10 μM, FIG. 3A
  time for which cAMP level was sustained: not exhibited
[4]; compositions shown in FIG. 3, 8 hours time course
  Max cAMP level (Fold): ~16 Fold
[4]; compositions shown in FIG. 4, 5 μM, 8 hours time course
  Max cAMP level (Fold): ~14 Fold
[4]
  change of potency with incubation time / release profile: potency decreases with increasing incubation time
[4]; effect of nebulization study (FIG. 6), head prints (5 μM)
  Max cAMP level (Fold): ~15 Fold

Reference: patent US20170049739A1, “PROSTACYCLIN COMPOUNDS, COMPOSITIONS AND METHODS OF USE THEREOF” (INSMED INCORPORATED, priority 2013, published 2017)
